Results taken from ChEMBL document CHEMBL1201862, “PubChem BioAssay data set” (2004).
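The compound was tested at five concentrations on cells cultured in 96-well plates, with a 48-hour exposure period. GI50: concentration for 50% inhibition of growth.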 Active and inactive are the calls of the source. No stated cut-off is given here; in the data, active = GI50 up to about 1.1 µM and inactive = higher.

How the values were obtained:
Experiment in all cases: DTP human tumour cell line panel, 48 h
HOP-62 = tested on: HOP-62
K562 = tested on: K562
HL-60 = tested on: HL-60
NCI-H23 = tested on: NCI-H23
OVCAR-3 = tested on: OVCAR-3
HT-29 = tested on: HT-29
MCF7 = tested on: MCF7
786-0 = tested on: 786-0
UACC-257 = tested on: UACC-257
OVCAR-8 = tested on: OVCAR-8
NCI-H226 = tested on: NCI-H226
OVCAR-5 = tested on: OVCAR-5
CAKI-1 = tested on: CAKI-1
ACHN = tested on: ACHN
RPMI-8226 = tested on: RPMI-8226
OVCAR-4 = tested on: OVCAR-4
Malme-3M = tested on: Malme-3M
PC-3 = tested on: PC-3
MDA-MB-435 = tested on: MDA-MB-435
EKVX = tested on: EKVX
A498 = tested on: A498
SK-MEL-2 = tested on: SK-MEL-2
SK-MEL-5 = tested on: SK-MEL-5
A549 = tested on: A549
CCRF-CEM = tested on: CCRF-CEM
SF-295 = tested on: SF-295
UACC-62 = tested on: UACC-62
Hs-578T = tested on: Hs-578T
MDA-N = tested on: MDA-N
HCT-116 = tested on: HCT-116
SR = tested on: SR
SF-539 = tested on: SF-539
HCC 2998 = tested on: HCC 2998
SNB-75 = tested on: SNB-75
TK-10 = tested on: TK-10
NCI-H522 = tested on: NCI-H522
T47D = tested on: T47D
SW-620 = tested on: SW-620
LOX IMVI = tested on: LOX IMVI
SN12C = tested on: SN12C
SK-MEL-28 = tested on: SK-MEL-28
U-251 = tested on: U-251
NCI-H460 = tested on: NCI-H460
HOP-92 = tested on: HOP-92
RXF 393 = tested on: RXF 393
DU-145 = tested on: DU-145
HCT-15 = tested on: HCT-15
SF-268 = tested on: SF-268
BT-549 = tested on: BT-549
COLO 205 = tested on: COLO 205
M14 = tested on: M14
SNB-19 = tested on: SNB-19
IGROV-1 = tested on: IGROV-1
MOLT-4 = tested on: MOLT-4
KM12 = tested on: KM12
NCI/ADR-RES = tested on: NCI/ADR-RES
UO-31 = tested on: UO-31
MDA-MB-231 = tested on: MDA-MB-231
SK-OV-3 = tested on: SK-OV-3

## O=C1CCc2cc(Br)ccc2O1
HOP-62
  GI50: 22.4 µM (inactive)
K562
  GI50: > 100 µM (inactive)
HL-60
  GI50: > 100 µM (inactive)
NCI-H23
  GI50: 44.7 µM (inactive)
OVCAR-3
  GI50: > 100 µM (inactive)
HT-29
  GI50: > 100 µM (inactive)
MCF7
  GI50: 12.6 µM (inactive)
786-0
  GI50: 29.2 µM (inactive)
UACC-257
  GI50: > 100 µM (inactive)
OVCAR-8
  GI50: > 100 µM (inactive)
NCI-H226
  GI50: > 100 µM (inactive)
OVCAR-5
  GI50: > 100 µM (inactive)
CAKI-1
  GI50: 38.4 µM (inactive)
ACHN
  GI50: 49.1 µM (inactive)
RPMI-8226
  GI50: > 100 µM (inactive)
OVCAR-4
  GI50: > 100 µM (inactive)
Malme-3M
  GI50: > 100 µM (inactive)
PC-3
  GI50: > 100 µM (inactive)
MDA-MB-435
  GI50: > 100 µM (inactive)
EKVX
  GI50: 3.81 µM (inactive)
A498
  GI50: 37.8 µM (inactive)
SK-MEL-2
  GI50: > 100 µM (inactive)
SK-MEL-5
  GI50: 26.4 µM (inactive)
A549
  GI50: > 100 µM (inactive)
CCRF-CEM
  GI50: > 100 µM (inactive)
SF-295
  GI50: 34 µM (inactive)
UACC-62
  GI50: > 100 µM (inactive)
Hs-578T
  GI50: 22.4 µM (inactive)
MDA-N
  GI50: > 100 µM (inactive)
HCT-116
  GI50: 42 µM (inactive)
SR
  GI50: 83 µM (inactive)
SF-539
  GI50: 32.9 µM (inactive)
HCC 2998
  GI50: > 100 µM (inactive)
SNB-75
  GI50: 30.4 µM (inactive)
TK-10
  GI50: 45.7 µM (inactive)
NCI-H522
  GI50: 32.7 µM (inactive)
T47D
  GI50: 73.3 µM (inactive)
SW-620
  GI50: > 100 µM (inactive)
LOX IMVI
  GI50: 50.5 µM (inactive)
SN12C
  GI50: 92.9 µM (inactive)
SK-MEL-28
  GI50: > 100 µM (inactive)
U-251
  GI50: 30 µM (inactive)
NCI-H460
  GI50: > 100 µM (inactive)
HOP-92
  GI50: 24.9 µM (inactive)
RXF 393
  GI50: 28.2 µM (inactive)
DU-145
  GI50: > 100 µM (inactive)
HCT-15
  GI50: > 100 µM
SF-268
  GI50: 23.6 µM (inactive)
BT-549
  GI50: 62.8 µM (inactive)
COLO 205
  GI50: > 100 µM (inactive)
M14
  GI50: 57 µM (inactive)
SNB-19
  GI50: 25 µM (inactive)
IGROV-1
  GI50: 67.3 µM (inactive)
MOLT-4
  GI50: > 100 µM (inactive)

## COc1ccc(/C=C2\CCC(CNc3ccc(S(N)(=O)=O)cc3)C2=O)cc1 (configuration not stated)
HOP-62
  GI50: 37.8 µM (inactive)
K562
  GI50: 1.51 µM (inactive)
HL-60
  GI50: 2.15 µM (inactive)
NCI-H23
  GI50: 19.7 µM (inactive)
OVCAR-3
  GI50: 9.04 µM (inactive)
HT-29
  GI50: 10.2 µM (inactive)
MCF7
  GI50: 1.74 µM (inactive)
786-0
  GI50: 4.9 µM (inactive)
UACC-257
  GI50: 20 µM (inactive)
OVCAR-8
  GI50: 18 µM (inactive)
NCI-H226
  GI50: > 69.5 µM (inactive)
OVCAR-5
  GI50: 21.6 µM (inactive)
CAKI-1
  GI50: 3.27 µM (inactive)
ACHN
  GI50: 23.1 µM (inactive)
OVCAR-4
  GI50: 31.6 µM (inactive)
Malme-3M
  GI50: 16 µM (inactive)
PC-3
  GI50: 21.9 µM (inactive)
MDA-MB-435
  GI50: 18.3 µM (inactive)
EKVX
  GI50: 27.6 µM (inactive)
A498
  GI50: 44.4 µM (inactive)
SK-MEL-2
  GI50: 75.7 µM (inactive)
SK-MEL-5
  GI50: 16.3 µM (inactive)
A549
  GI50: > 82.8 µM (inactive)
CCRF-CEM
  GI50: 2.29 µM (inactive)
SF-295
  GI50: > 67.3 µM (inactive)
UACC-62
  GI50: 24.5 µM (inactive)
Hs-578T
  GI50: 43 µM (inactive)
KM12
  GI50: 11.3 µM (inactive)
HCT-116
  GI50: 8.65 µM (inactive)
SR
  GI50: 1.9 µM (inactive)
SF-539
  GI50: 25.7 µM (inactive)
HCC 2998
  GI50: 33.3 µM (inactive)
SNB-75
  GI50: 32.1 µM (inactive)
TK-10
  GI50: 14.3 µM (inactive)
NCI-H522
  GI50: 4.52 µM (inactive)
T47D
  GI50: 17 µM (inactive)
NCI/ADR-RES
  GI50: 31.6 µM (inactive)
SW-620
  GI50: 1.95 µM (inactive)
LOX IMVI
  GI50: 9.89 µM (inactive)
SN12C
  GI50: 18.6 µM (inactive)
UO-31
  GI50: 5.71 µM (inactive)
SK-MEL-28
  GI50: 16.7 µM (inactive)
U-251
  GI50: 19.9 µM (inactive)
NCI-H460
  GI50: 31.3 µM (inactive)
HOP-92
  GI50: 8.53 µM (inactive)
MDA-MB-231
  GI50: 16.6 µM (inactive)
RXF 393
  GI50: 20.4 µM (inactive)
DU-145
  GI50: > 53.8 µM (inactive)
HCT-15
  GI50: 4.71 µM
SK-OV-3
  GI50: > 100 µM (inactive)
SF-268
  GI50: 22.5 µM (inactive)
BT-549
  GI50: 18.7 µM (inactive)
COLO 205
  GI50: 16.6 µM (inactive)
M14
  GI50: 15.5 µM (inactive)
SNB-19
  GI50: 32 µM (inactive)
IGROV-1
  GI50: 20 µM (inactive)
MOLT-4
  GI50: 7.69 µM (inactive)

## CCOC(=O)c1c2c(n(-c3ccc(C)cc3)c1C)-c1ccccc1C(=O)C2(C(=O)OCC)C(=O)OCC
HOP-62
  GI50: 78.7 µM (inactive)
K562
  GI50: 14.5 µM (inactive)
HL-60
  GI50: 6.34 µM (inactive)
NCI-H23
  GI50: 57.5 µM (inactive)
OVCAR-3
  GI50: 25.3 µM (inactive)
HT-29
  GI50: 27.3 µM (inactive)
MCF7
  GI50: 25.9 µM (inactive)
786-0
  GI50: 50.6 µM (inactive)
UACC-257
  GI50: 33.8 µM (inactive)
OVCAR-8
  GI50: 29.2 µM (inactive)
NCI-H226
  GI50: 55 µM (inactive)
OVCAR-5
  GI50: 74 µM (inactive)
CAKI-1
  GI50: 39.9 µM (inactive)
ACHN
  GI50: 44.3 µM (inactive)
RPMI-8226
  GI50: 14 µM (inactive)
OVCAR-4
  GI50: 30.8 µM (inactive)
Malme-3M
  GI50: 30.1 µM (inactive)
PC-3
  GI50: 33.7 µM (inactive)
MDA-MB-435
  GI50: 29.1 µM (inactive)
EKVX
  GI50: 32.4 µM (inactive)
A498
  GI50: 46.6 µM (inactive)
SK-MEL-2
  GI50: 36.3 µM (inactive)
SK-MEL-5
  GI50: 19.2 µM (inactive)
A549
  GI50: 30.7 µM (inactive)
CCRF-CEM
  GI50: 29 µM (inactive)
SF-295
  GI50: 37.9 µM (inactive)
UACC-62
  GI50: 27.3 µM (inactive)
Hs-578T
  GI50: 25.3 µM (inactive)
KM12
  GI50: 38.5 µM (inactive)
HCT-116
  GI50: 31.4 µM (inactive)
SR
  GI50: 1.31 µM (inactive)
SF-539
  GI50: 35.8 µM (inactive)
HCC 2998
  GI50: 31.4 µM (inactive)
SNB-75
  GI50: 28.6 µM (inactive)
TK-10
  GI50: 59.2 µM (inactive)
NCI-H522
  GI50: 25.1 µM (inactive)
T47D
  GI50: 20.7 µM (inactive)
NCI/ADR-RES
  GI50: 33.4 µM (inactive)
SW-620
  GI50: 37.1 µM (inactive)
LOX IMVI
  GI50: 33.8 µM (inactive)
SN12C
  GI50: 34.4 µM (inactive)
UO-31
  GI50: 23.1 µM (inactive)
SK-MEL-28
  GI50: 27.3 µM (inactive)
U-251
  GI50: 70.1 µM (inactive)
NCI-H460
  GI50: 35.5 µM (inactive)
HOP-92
  GI50: 27.6 µM (inactive)
MDA-MB-231
  GI50: 32.1 µM (inactive)
RXF 393
  GI50: 26.5 µM (inactive)
DU-145
  GI50: 30.4 µM (inactive)
HCT-15
  GI50: 36.1 µM
SK-OV-3
  GI50: > 76.6 µM (inactive)
SF-268
  GI50: 34.3 µM (inactive)
BT-549
  GI50: 24.8 µM (inactive)
COLO 205
  GI50: 45.3 µM (inactive)
M14
  GI50: 60.3 µM (inactive)
SNB-19
  GI50: > 92.7 µM (inactive)
IGROV-1
  GI50: 30.3 µM (inactive)
MOLT-4
  GI50: 1.71 µM (inactive)

## C=C1C(=O)[C@@]23CC1C(O)[C@@H](OC(C)=O)[C@@H]2C1(C)C(OC(C)=O)C[C@@H](OC(C)=O)C(C)(C)[C@@H]1C[C@H]3OC(C)=O (some centres not stated)
HOP-62
  GI50: > 10 µM (inactive)
MCF7
  GI50: 2.58 µM (inactive)
786-0
  GI50: 5.52 µM (inactive)
NCI-H226
  GI50: > 10 µM (inactive)
CAKI-1
  GI50: 6.27 µM (inactive)
ACHN
  GI50: > 10 µM (inactive)
PC-3
  GI50: > 10 µM (inactive)
A498
  GI50: > 10 µM (inactive)
Hs-578T
  GI50: 2.9 µM (inactive)
MDA-N
  GI50: 3.85 µM (inactive)
HCC 2998
  GI50: > 10 µM (inactive)
T47D
  GI50: 2.12 µM (inactive)
NCI/ADR-RES
  GI50: > 10 µM (inactive)
LOX IMVI
  GI50: 6.35 µM (inactive)
SN12C
  GI50: 3.77 µM (inactive)
DU-145
  GI50: > 10 µM (inactive)
HCT-15
  GI50: 2.6 µM
BT-549
  GI50: 1.47 µM (inactive)
